# Results reported in patent US7067500B2, “Betaines as adjuvants to susceptibility testing and antimicrobial therapy” (priority 1997, dated 2006).
# Several values for one entry are separate records, joined by “and”; a condition that tells them apart may be missing. Equal entries are not always repeated. Structures can show the parent of a compound that is named as a salt.
# Tested on: M. tuberculosis isolates ATCC 27294 and 571/573-BAL
# Assay: Mycobacterial susceptibility testing (proportion method criteria) with CB-18 and P-cax
# Format: cell-based, Mycobacterium tuberculosis
smiles,measurement,setting,value
"CCCCCCCCCCCCCCCCCC[N+](C)(C)CCCC(=O)[O-] [CB-18, N-(3-carboxypropyl)-N,N-dimethyl-1-octadecanaminium, inner salt]",CB-18 concentration at which the isolate would have been reported as susceptible,"571/573-BAL, 10×-dilution (111,000 ± 17,900 cfu), in the presence of P-cax",60 µg/mL and 30 µg/mL
same,CB-18 concentration at which the isolate would have been reported as susceptible,"571/573-BAL, 100×-dilution (11,100 ± 1,790 cfu), in the presence of P-cax",15 µg/mL
same,CB-18 concentration at which the isolate would have been reported as susceptible,"ATCC 27294, 10×-dilution (62,800 ± 5,700 cfu), in the presence of P-cax",60 µg/mL
same,CB-18 concentration at which the isolate would have been deemed susceptible,"ATCC 27294, 100×-dilution (6,280 ± 570 cfu), in the presence of P-cax",30 µg/mL
same,growth of isolates,"both isolates, high input (>1×10^5 cfu), 30 μg/ml CB-18",grew unimpeded during the first week
